The first test relates to recombinant NL4-3 virus (Renilla luciferase in nef, Gag P373S). The test is described as follows: HIV cell culture assay (luciferase activity in MT-2 cells infected with NLRluc recombinant virus). As to conditions: NL43, MT-2 cells infected 4-5 days with NLRluc recombinant virus, class symbol. It is filed as cell-based. Here is the method: HIV cell culture assay—MT-2 cells and 293T cells were obtained from the NIH AIDS Research and Reference Reagent Program. MT-2 cells were propagated in RPMI 1640 media supplemented with 10% heat inactivated fetal bovine serum, […]. The 293T cells were propagated in DMEM media supplemented with 10% heat inactivated fetal bovine serum (FBS), 100 units/ml penicillin G and 100 μg/ml streptomycin. The proviral DNA clone of NL4-3 was obtained from the NIH AIDS Research and Reference Reagent Program. A recombinant NL4-3 virus, in which a section of the nef gene from NL4-3 was replaced with the Renilla luciferase gene, was used as a reference virus. In addition, residue Gag P373 was converted to P373S. Briefly, the recombinant virus was prepared by transfection of the altered proviral clone of NL4-3. Transfections were performed in 293T cells using LipofectAMINE PLUS from Invitrogen (Carlsbad, Calif.), according to manufacturer's instruction. The virus was titered in MT-2 cells using luciferase enzyme activity as a marker. Luciferase was quantitated using the Dual Luciferase kit from Promega (Madison, Wis.), with modifications to the manufacturer's protocol. The diluted Passive Lysis solution was pre-mixed with the re-suspended Luciferase Assay Reagent and the re-suspended Stop & Glo Substrate (2:1:1 ratio). Fifty (50) μL of the mixture was added to each aspirated well on assay plates and luciferase activity was measured immediately on a Wallac TriLux (Perkin-Elmer). Antiviral activities of inhibitors toward the recombinant virus were quantified by measuring luciferase activity in cells infected for 4-5 days with NLRluc recombinants in the presence serial dilutions of the inhibitor. Table 1 is the key for the data in Table 2.
As usually defined, the EC50 is the midpoint of the concentration-response curve. As for `C=C(C)[C@@H]1CC[C@]2(CNCC3CCCN3CC)CC[C@]3(C)[C@H](CC[C@@H]4[C@@]5(C)CC=C(c6ccc(C(=O)O)cc6)C(C)(C)[C@@H]5CC[C@]43C)[C@@H]12` (single isomer, unassigned) [Example 4], the EC50 is below 100 nM. For `C=C(C)[C@@H]1CC[C@]2(CNCCN(C)C)CC[C@]3(C)[C@H](CC[C@@H]4[C@@]5(C)CC=C(c6ccc(C(=O)O)cc6)C(C)(C)[C@@H]5CC[C@]43C)[C@@H]12` [Example 1, 4-((1R,3aS,5aR,5bR,7aR,11aS,11bR,13aR,13bR)-3a-((2-(dimethylamino)ethylamino)methyl)-5a,5b,8,8,11a-pentamethyl-1-(prop-1-en-2-yl)-2,3,3a,4,5,5a,5b,6,7,7a,8,11,11a,11b,12,13,13a,13b-octadecahydro-1H-cyclopenta[a]chrysen-9-yl)benzoic acid], the EC50 was below 100 nM. Take `C=C(C)[C@@H]1CC[C@]2(CNCCCN3CCOCC3)CC[C@]3(C)[C@H](CC[C@@H]4[C@@]5(C)CC=C(c6ccc(C(=O)O)cc6)C(C)(C)[C@@H]5CC[C@]43C)[C@@H]12` [Example 2, 4-((1R,3aS,5aR,5bR,7aR,11aS,11bR,13aR,13bR)-5a,5b,8,8,11a-pentamethyl-3a-((3-morpholinopropylamino)methyl)-1-(prop-1-en-2-yl)-2,3,3a,4,5,5a,5b,6,7,7a,8,11,11a,11b,12,13,13a,13b-octadecahydro-1H-cyclopenta[a]chrysen-9-yl)benzoic acid]: the EC50 is below 100 nM. For the compound `C=C(C)[C@@H]1CC[C@]2(CNCCNC(C)=O)CC[C@]3(C)[C@H](CC[C@@H]4[C@@]5(C)CC=C(c6ccc(C(=O)O)cc6)C(C)(C)[C@@H]5CC[C@]43C)[C@@H]12` [Example 7, 4-((1R,3aS,5aR,5bR,7aR,11aS,11bR,13aR,13bR)-3a-((2-acetamidoethylamino)methyl)-5a,5b,8,8,11a-pentamethyl-1-(prop-1-en-2-yl)-2,3,3a,4,5,5a,5b,6,7,7a,8,11,11a,11b,12,13,13a,13b-octadecahydro-1H-cyclopenta[a]chrysen-9-yl)benzoic acid], the EC50 was below 100 nM. Turning to `C=C(C)[C@@H]1CC[C@]2(CNCCN3CCNCC3)CC[C@]3(C)[C@H](CC[C@@H]4[C@@]5(C)CC=C(c6ccc(C(=O)O)cc6)C(C)(C)[C@@H]5CC[C@]43C)[C@@H]12` [Example 8, 4-((1R,3aS,5aR,5bR,7aR,11aS,11bR,13aR,13bR)-5a,5b,8,8,11a-pentamethyl-3a-((2-(piperazin-1-yl)ethylamino)methyl)-1-(prop-1-en-2-yl)-2,3,3a,4,5,5a,5b,6,7,7a,8,11,11a,11b,12,13,13a,13b-octadecahydro-1H-cyclopenta[a]chrysen-9-yl)benzoic acid], the EC50 is below 100 nM. Consider `C=C(C)[C@@H]1CC[C@]2(CNCCN3CCCCC3)CC[C@]3(C)[C@H](CC[C@@H]4[C@@]5(C)CC=C(c6ccc(C(=O)O)cc6)C(C)(C)[C@@H]5CC[C@]43C)[C@@H]12` [Example 9, 4-((1R,3aS,5aR,5bR,7aR,11aS,11bR,13aR,13bR)-5a,5b,8,8,11a-pentamethyl-3a-((2-(piperidin-1-yl)ethylamino)methyl)-1-(prop-1-en-2-yl)-2,3,3a,4,5,5a,5b,6,7,7a,8,11,11a,11b,12,13,13a,13b-octadecahydro-1H-cyclopenta[a]chrysen-9-yl)benzoic acid], for which the EC50 is below 100 nM.

For the compound `C=C(C)[C@@H]1CC[C@]2(CNCCN3CCN(C)CC3)CC[C@]3(C)[C@H](CC[C@@H]4[C@@]5(C)CC=C(c6ccc(C(=O)O)cc6)C(C)(C)[C@@H]5CC[C@]43C)[C@@H]12` [Example 11, 4-((1R,3aS,5aR,5bR,7aR,11aS,1bR,13aR,13bR)-5a,5b,8,8,11a-pentamethyl-3a-((2-(4-methylpiperazin-1-yl)ethylamino)methyl)-1-(prop-1-en-2-yl)-2,3,3a,4,5,5a,5b,6,7,7a,8,11,11a,11b,12,13,13a,13b-octadecahydro-1H-cyclopenta[a]chrysen-9-yl)benzoic acid], the EC50 was below 100 nM. Consider `C=C(C)[C@@H]1CC[C@]2(CN(CCN(C)C)C(=O)CC(=O)O)CC[C@]3(C)[C@H](CC[C@@H]4[C@@]5(C)CC=C(c6ccc(C(=O)O)cc6)C(C)(C)[C@@H]5CC[C@]43C)[C@@H]12` [Example 12, 4-((1R,3aS,5aR,5bR,7aR,11aS,11bR,13aR,13bR)-3a-((2-carboxy-N-(2-(dimethylamino)ethyl)acetamido)methyl)-5a,5b,8,8,11a-pentamethyl-1-(prop-1-en-2-yl)-2,3,3a,4,5,5a,5b,6,7,7a,8,11,11a,11b,12,13,13a,13b-octadecahydro-1H-cyclopenta[a]chrysen-9-yl)benzoic acid], for which the EC50 was below 100 nM. As to `C=C(C)[C@@H]1CC[C@]2(CN(CCN(C)C)C(=O)CCC(=O)O)CC[C@]3(C)[C@H](CC[C@@H]4[C@@]5(C)CC=C(c6ccc(C(=O)O)cc6)C(C)(C)[C@@H]5CC[C@]43C)[C@@H]12` [Example 13, 4-((1R,3aS,5aR,5bR,7aR,11aS,11bR,13aR,13bR)-3a-((3-carboxy-N-(2-(dimethylamino)ethyl)propanamido)methyl)-5a,5b,8,8,11a-pentamethyl-1-(prop-1-en-2-yl)-2,3,3a,4,5,5a,5b,6,7,7a,8,11,11a,11b,12,13,13a,13b-octadecahydro-1H-cyclopenta[a]chrysen-9-yl)benzoic acid], the EC50 is below 100 nM. As for `C=C(C)[C@@H]1CC[C@]2(CNCCCN3CCS(=O)(=O)CC3)CC[C@]3(C)[C@H](CC[C@@H]4[C@@]5(C)CC=C(c6ccc(C(=O)O)cc6)C(C)(C)[C@@H]5CC[C@]43C)[C@@H]12` [Example 14, 4-((1R,3aS,5aR,5bR,7aR,11aS,11bR,13aR,13bR)-5a,5b,8,8,11a-pentamethyl-1-(prop-1-en-2-yl)-3a-((3-(1-dioxo-thiomorpholino)propylamino)methyl)-2,3,3a,4,5,5a,5b,6,7,7a,8,11,11a,11b,12,13,13a,13b-octadecahydro-1H-cyclopenta[a]chrysen-9-yl)benzoic acid], the EC50 was below 100 nM. Take `C=C(C)[C@@H]1CC[C@]2(CN(C)CCCN3CCS(=O)(=O)CC3)CC[C@]3(C)[C@H](CC[C@@H]4[C@@]5(C)CC=C(c6ccc(C(=O)O)cc6)C(C)(C)[C@@H]5CC[C@]43C)[C@@H]12` [Example 15, 4-((1R,3aS,5aR,5bR,7aR,11aS,11bR,13aR,13bR)-5a,5b,8,8,11a-pentamethyl-1-(prop-1-en-2-yl)-3a-((3-(1-dioxo-thiomorpholino)propylamino)methyl)-2,3,3a,4,5,5a,5b,6,7,7a,8,11,11a,11b,12,13,13a,13b-octadecahydro-1H-cyclopenta[a]chrysen-9-yl)benzoic acid]: the EC50 is below 100 nM.

The test is the same for the next values; noted with them: NL43, MT-2 cells infected 4-5 days with NLRluc recombinant virus, numeric value.
In the case of `C=C(C)[C@@H]1CC[C@]2(CNCC3CCCN3CC)CC[C@]3(C)[C@H](CC[C@@H]4[C@@]5(C)CC=C(c6ccc(C(=O)O)cc6)C(C)(C)[C@@H]5CC[C@]43C)[C@@H]12` (single isomer, unassigned) [Example 3], the EC50 is 30 nM.

`C=C(C)[C@@H]1CC[C@]2(CNCCc3ccccn3)CC[C@]3(C)[C@H](CC[C@@H]4[C@@]5(C)CC=C(c6ccc(C(=O)O)cc6)C(C)(C)[C@@H]5CC[C@]43C)[C@@H]12` [Example 5, 4-((1R,3aS,5aR,5bR,7aR,11aS,11bR,13aR,13bR)-5a,5b,8,8,11a-pentamethyl-1-(prop-1-en-2-yl)-3a-((2-(pyridin-2-yl)ethylamino)methyl)-2,3,3a,4,5,5a,5b,6,7,7a,8,11,11a,11b,12,13,13a,13b-octadecahydro-1H-cyclopenta[a]chrysen-9-yl)benzoic acid]: the concentration giving a half-maximal response (EC50) was found to be 20 nM. Take `C=C(C)[C@@H]1CC[C@]2(CNCCCN(C)C)CC[C@]3(C)[C@H](CC[C@@H]4[C@@]5(C)CC=C(c6ccc(C(=O)O)cc6)C(C)(C)[C@@H]5CC[C@]43C)[C@@H]12` [Example 6, 4-((1R,3aS,5aR,5bR,7aR,11aS,11bR,13aR,13bR)-3a-((3-(dimethylamino)propylamino)methyl)-5a,5b,8,8,11a-pentamethyl-1-(prop-1-en-2-yl)-2,3,3a,4,5,5a,5b,6,7,7a,8,11,11a,11b,12,13,13a,13b-octadecahydro-1H-cyclopenta[a]chrysen-9-yl)benzoic acid]: the EC50 amounted to 30 nM.

For the compound `C=C(C)[C@@H]1CC[C@]2(CNCC(c3cccnc3)N(C)C)CC[C@]3(C)[C@H](CC[C@@H]4[C@@]5(C)CC=C(c6ccc(C(=O)O)cc6)C(C)(C)[C@@H]5CC[C@]43C)[C@@H]12` (stereo partly drawn) [Example 10, 4-((1R,3aS,5aR,5bR,7aR,11aS,11bR,13aR,13bR)-3a-((2-(dimethylamino)-2-(pyridin-3-yl)ethylamino)methyl)-5a,5b,8,8,11a-pentamethyl-1-(prop-1-en-2-yl)-2,3,3a,4,5,5a,5b,6,7,7a,8,11,11a,11b,12,13,13a,13b-octadecahydro-1H-cyclopenta[a]chrysen-9-yl)benzoic acid], the EC50 amounted to 4 nM.

The record behind these values is patent US8748415B2 (priority 2011, dated 2014).
